From patent US20250241878A1, “TYROSINE AND RESVERATROL DERIVATIVES AS NOVEL MODULATORS OF CELLULAR SERINE ADP-RIBOSYLATION” (UNIVERSITY OF SOUTH CAROLINA, priority 2022, published 2025)
Where two headings read alike, the source gives them in different places.

Key:
TyrRS = type: cell-based, rat; settings: for effect on NMDA- and MPP+-mediated decrease of neuronal TyrRS: combination with NMDA or MPP+, 4 hr
Method: (§1) Primary cortical neurons were dissected from E18 Sprague Dawley rat pups in Hibernate E (BrainBits®) and dissociated using the Neural Tissue Dissociation kit (Miltenyi Biotec). Minced cortices were incubated in a pre-warmed enzyme mix at 37° C. for 15 min; tissues were then triturated and strained using a 40 μm cell strainer. After washing and centrifugation, neurons were seeded in 50 μg/ml poly-D-Lysine (Sigma-Aldrich) coated tissue culture plates. NBActive-1 medium (BrainBits®) supplemented with 100 U/ml of Penicillin-Streptomycin (Life Technologies™), 2 mM L-Glutamine (Life Technologies™), and 1×N21 supplement (R&D Systems™) was used as culture medium. For preparation of culture medium containing reduced tyrosine, the components of NBActive-1 medium were altered to combined with a reduced concentration of tyrosine, as mentioned in Table 1, and was supplemented with 100 U/ml of Penicillin-Streptomycin (Life Technologies™), 2 mM L-Glutamine (Life Technologies™), and 1×N21 supplement (R&D Systems™) to obtained culture medium with reduced tyrosine. Control (non-targeting), TyrRS, and PARP1 siRNAs were obtained from Invitrogen™ (#AM4635, s443, and s130207, respectively). Rat cortical neurons at 5 DIV were transfected with 75 nM control or TyrRS siRNA using DharmaFECT™ 3 Transfection Reagent. A second transfection was done two days later using 75 nM of TyrRS siRNA, followed by cell collection or assays after another 48 hr. For PARP1 siRNA, neurons at 7 DIV were transfected with 75 nM siRNA for both control and PARP1 siRNA.
(§2) Cultured neurons (DIV 9-10) were washed once with cold 1×PBS and lysed in cell lysis buffer (20 mM Tris-HCl (pH 7.5), 150 mM NaCl, 1 mM Na2EDTA, 1 mM EGTA, 1% Triton™, 2.5 mM sodium pyrophosphate, 1 mM beta-glycerophosphate, 1 mM Na3VO4, 1 μg/ml leupeptin supplemented with protease inhibitor). The lysates were centrifuged at 10,000 RPM for 15 mins at 4° C. to separate the chromatin-bound and soluble fractions. Lysates were quantified using Bio-Rad™ Protein Assay and equal amounts of protein were loaded onto a 4 to 12% gradient gel (Invitrogen™ NuPAGE™). Protein was transferred from the gel to 0.2 μm NC membranes at 25 V for 10 mins using transfer stacks (iBlot™ 2-Invitrogen™) and blocked with 5% non-fat milk in TBST (10 mM Tris-HCl pH 8.0, 150 mM NaCl, 0.01% Tween-20) for 1 hr before application of primary antibodies. Primary and secondary antibodies were incubated overnight at 4° C. and for 1 hr at room temperature, respectively. Immobilon® ECL Ultra Western HRP Substrate (WBULS0500, Millipore™) and a luminescent image analyzer (ChemiDoc™ Imaging System, Bio-Rad™) were used to detect proteins. Quantification of western blots was done using ImageJ (Version 1.53c).
(§3) Cultured cortical neurons (DIV 9-10) were fixed in 4% formaldehyde for 15 min, followed by permeabilization and blocking for 30 min in 5% BSA (PBS) and 0.1% Tween™ 20 at room temperature. Incubation with primary antibodies was done at 4° C. overnight. The names and dilutions of the primary antibodies used for IF are described in Table 3. Secondary antibodies were incubated for 1 hr at room temperature. Secondary antibodies used were Alexa Fluor® 647 (anti-chicken), Alexa Fluor® 555 (anti-mouse), Alexa Fluor® 488 (anti-rabbit) from Invitrogen™ at 1:1000 dilution. Coverslips were then mounted using DAPI (4′,6-diamidino-2-phenylindole)-supplemented mounting medium, ProLong™ Gold Antifade (Invitrogen™) and imaged with Leica DMI6000 epifluorescent microscope using oil immersion 63×/NA 1.4 objective. The quantification for total protein levels in neurons was done using ImageJ (version 1.53c), and imaging parameters were matched for exposure, gain, and offset.
The various compounds used for treatments and their stock concentrations in Table 4.

eEF2 = eEF2 phosphorylation (p-eEF2) Western blot in cortical neurons; type: cell-based, rat; settings: compound alone
Method: as §1, §2

[1] = target: T1, interaction of eEF2 with TyrRS and PP2A (Rattus norvegicus, UniProt Q4KM49); assay: eEF2 immunoprecipitation probed for PP2A and TyrRS; type: cell-based; settings: compound alone
T1 construct: endogenous in cells; host or cells: primary rat (E18 Sprague Dawley) cortical neurons
T1 sequence (Q4KM49 1-528): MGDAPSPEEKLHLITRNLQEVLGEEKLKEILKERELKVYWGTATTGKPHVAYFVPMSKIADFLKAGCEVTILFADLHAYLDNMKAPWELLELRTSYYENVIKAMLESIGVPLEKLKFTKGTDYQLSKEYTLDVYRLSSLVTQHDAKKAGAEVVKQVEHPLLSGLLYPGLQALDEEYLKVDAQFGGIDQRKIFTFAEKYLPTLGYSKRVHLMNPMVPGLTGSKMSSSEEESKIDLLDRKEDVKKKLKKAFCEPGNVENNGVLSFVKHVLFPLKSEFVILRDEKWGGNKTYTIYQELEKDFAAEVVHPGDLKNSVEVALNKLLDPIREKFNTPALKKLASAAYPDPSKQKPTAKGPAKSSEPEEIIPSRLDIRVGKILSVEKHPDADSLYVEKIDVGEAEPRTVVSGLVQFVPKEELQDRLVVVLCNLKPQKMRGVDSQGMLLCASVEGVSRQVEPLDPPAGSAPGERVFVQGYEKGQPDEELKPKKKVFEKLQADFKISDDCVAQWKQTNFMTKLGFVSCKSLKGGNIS
Text: Immunoprecipitated eEF2 was probed for its interaction with PP2A and TyrRS using their specific antibodies.

γ-H2AX = γ-H2AX foci immunostaining in cortical neurons; type: cell-based, rat; settings: for γ-H2AX (DNA damage marker): compound alone
Method: as §3

8-oxo-dG = 8-oxo-dG immunofluorescence in cortical neurons; type: cell-based, rat; settings: for 8-oxo-dG (oxidative DNA damage marker): compound alone
Method: as §3

cortical neurons = assay: Comet assay; type: cell-based, rat; settings: for DNA damage, percentage (%) of DNA in the comet tail: compound alone
Method: The cells were harvested with a cell scraper using chilled PBS and counted. The comet assay (Trevigen®, Gaithersburg, MD) was performed according to standard methods using alkaline conditions. Electrophoresis was carried out at the rate of 1.0 V/cm for 20 min. The slides were removed from the electrophoresis chamber, washed twice in deionized water for 5 min and immersed in 70% ethanol for 5 min. Subsequently, the slides were dried at 37° C. for 30 min, DNA was stained with 50 μL of SYBR™ Gold dye (Fisher Scientific, 1:10000 in Tris-EDTA buffer, pH 7.5) for 20 min in the dark at room temperature and then analyzed using an epifluorescent microscope at 10× magnification. The images were scored for comet parameters, such as tail length and tail moment (product of % of DNA in the tail and tail length), using the TriTek CometScore™ Freeware v1.5 image analysis software.

[2] = system: histone H3-Ser10-ADP-ribosylation; assay: Histone H3 serine-ADP-ribosylation immunoblot in cortical neurons; type: cell-based, rat; settings: compound alone
Method: FIG. 5B presents representative immunoblots and quantification of histone H3-Ser10-ADP-ribosylation levels in cortical neurons (DIV9) using anti-H3-Ser10-ADPR antibody after treatment with D-tyrosine (2.5 and 5 mM).
as §2

SMILES	effect on NMDA- and MPP+-mediated decrease of neuronal TyrRS (TyrRS)	TyrRS protein levels (TyrRS; high dose of trans-RSV (50 μM))	TyrRS protein levels (TyrRS; low dose of trans-RSV (10 μm))	eEF2 phosphorylation (p-eEF2) (eEF2)	interaction of eEF2 with TyrRS and PP2A [1]	γ-H2AX (DNA damage marker) (γ-H2AX)	8-oxo-dG (oxidative DNA damage marker) (8-oxo-dG)	DNA damage, percentage (%) of DNA in the comet tail (cortical neurons)	histone H3 serine-ADP-ribosylation [2]	TyrRS protein levels (TyrRS; cis-RSV 10-50 μM)	effect on trans-RSV- and tyrosine-mediated decrease in TyrRS levels (TyrRS; combination treatment)	effect on nelfinavir-mediated depletion of TyrRS (TyrRS; combination with nelfinavir)	γ-H2AX levels (γ-H2AX; added after 12 hr of tyrosine pretreatment)	effect on tyrosine-induced accumulation of γ-H2AX (γ-H2AX; combination with tyrosine)	γ-H2AX levels after ETO-mediated DNA damage (γ-H2AX; with etoposide (ETO))	effect on tyrosine-induced accumulation of 8-oxo-dG (8-oxo-dG; combination with tyrosine)	effect on DNA damage caused by Tyr (cortical neurons; combination with Tyr)	time until TyrRS levels were restored (TyrRS; after tyrosine treatment) [h]	TyrRS protein levels (TyrRS; compound alone, rat cortical neurons)
Oc1ccc(/C=C/c2cc(O)cc(O)c2)cc1 [trans-RSV, trans-resveratrol]	exacerbated it	decreased it	increased TyrRS	increased p-eEF2 levels	decreased their interactions	caused the accumulation of γ-H2AX and 8-oxo-dG	caused the accumulation of γ-H2AX and 8-oxo-dG	significantly increased DNA damage	inhibiting histone H3 serine-ADP-ribosylation	–	–	–	–	–	–	–	–	–	–
Oc1ccc(/C=C\c2cc(O)cc(O)c2)cc1 [cis-RSV, cis-resveratrol]	suppressed this effect	–	–	activated the dephosphorylation of eEF2	facilitated the interaction of eEF2 with TyrRS and PP2A	–	–	did not cause an increase in percentage of DNA in the comet tail	stimulated serine-ADP-ribosylation	increased TyrRS protein levels both in the nucleus and neurites	rescued the effects of trans-RSV and tyrosine-mediated decrease in TyrRS levels in a dose-dependent manner	rescued	reduced γ-H2AX levels	rescued tyrosine-induced accumulation of γ-H2AX and 8-oxo-dG	decreased levels of γ-H2AX	rescued tyrosine-induced accumulation of γ-H2AX and 8-oxo-dG	attenuated the increase in DNA damage caused by Tyr	–	–
N[C@@H](Cc1ccc(O)cc1)C(=O)O [tyrosine, L-tyrosine]	–	–	–	inhibited eEF2	decreased their interactions	accumulation of γ-H2AX foci	resulted in the accumulation	significantly increased DNA damage	inhibiting histone H3 serine-ADP-ribosylation	–	–	–	–	–	–	–	–	16 to 24	decreased TyrRS
